Assay results: the supplement of paper PMC10733146

Columns and labels:
Assay in all cases: viability relative to DMSO control (fraction); higher = less drug effect (more viable cells)
Details in all cases: 48 h
[1] = test system: primary B-PLL patient cells (S016)
How it was run: (§1)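 The cells were primary mononuclear tumour cells, either fresh or cryopreserved, isolated by Ficoll from blood or bone marrow or derived from processed lymph node. Each well of a 384-well plate received 4 × 10^4 cells onto compounds pre-plated at five concentrations, with one well per concentration. The medium was RPMI-1640 with penicillin/streptomycin, L-glutamine and human serum, and plates stood at 37 °C and 5% CO2 for 48 h. Viability is reported as CellTiter-Glo luminescence relative to the median of 16 inner DMSO wells.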

[2] = test system: primary AML patient cells (S009)
How it was run: as §1

[3] = test system: primary AML patient cells (S002)
How it was run: as §1

[4] = test system: primary T-PLL patient cells (S008)
How it was run: as §1

[5] = test system: primary AML patient cells (S012)
How it was run: as §1

[6] = test system: primary MCL patient cells (S041)
How it was run: as §1

[7] = test system: primary MCL patient cells (S068)
How it was run: as §1

[8] = test system: primary AML patient cells (S085)
How it was run: as §1

[9] = test system: primary AML patient cells (S037)
How it was run: as §1

[10] = test system: primary AML patient cells (S011)
How it was run: as §1

[11] = test system: primary MCL patient cells (S053)
How it was run: as §1

[12] = test system: primary AML patient cells (S081)
How it was run: as §1

[13] = test system: primary BL patient cells (S005)
How it was run: as §1

[14] = test system: primary FL patient cells (S022)
How it was run: as §1

[15] = test system: primary AML patient cells (S017)
How it was run: as §1

[16] = test system: primary AML patient cells (S021)
How it was run: as §1

[17] = test system: primary FL patient cells (S087)
How it was run: as §1

[18] = test system: primary AML patient cells (S019)
How it was run: as §1

[19] = test system: primary AML patient cells (S091)
How it was run: as §1

Nc1cccc2c1CN(C1CCC(=O)NC1=O)C2=O (stereo not given) [Lenalidomide]
viability ([1]; 0.008 µM): 1.1 | viability ([1]; 0.04 µM): 1.05 | viability ([1]; 0.2 µM): 0.883 | viability ([1]; 1 µM): 0.819 | viability ([1]; 5 µM): 0.719 | viability ([2]; 0.008 µM): 0.927 | viability ([2]; 0.04 µM): 0.871 | viability ([2]; 0.2 µM): 0.817 | viability ([2]; 1 µM): 0.723 | viability ([2]; 5 µM): 0.786 | viability ([3]; 0.008 µM): 0.904 | viability ([3]; 0.04 µM): 0.949 | viability ([3]; 0.2 µM): 0.757 | viability ([3]; 1 µM): 0.698 | viability ([3]; 5 µM): 0.713 | viability ([4]; 0.008 µM): 0.988 | viability ([4]; 0.04 µM): 0.995 | viability ([4]; 0.2 µM): 0.907 | viability ([4]; 1 µM): 0.836 | viability ([4]; 5 µM): 0.798 | viability ([5]; 0.008 µM): 0.913 | viability ([5]; 0.04 µM): 0.956 | viability ([5]; 0.2 µM): 0.874 | viability ([5]; 1 µM): 0.946 | viability ([5]; 5 µM): 0.981 | viability ([6]; 0.008 µM): 1.01 | viability ([6]; 0.04 µM): 0.929 | viability ([6]; 0.2 µM): 0.888 | viability ([6]; 1 µM): 0.953 | viability ([6]; 5 µM): 0.863 | viability ([7]; 0.008 µM): 1.02 | viability ([7]; 0.04 µM): 0.803 | viability ([7]; 0.2 µM): 0.832 | viability ([7]; 1 µM): 0.764 | viability ([7]; 5 µM): 0.736 | viability ([8]; 0.008 µM): 0.956 | viability ([8]; 0.04 µM): 0.688 | viability ([8]; 0.2 µM): 0.572 | viability ([8]; 1 µM): 0.524 | viability ([8]; 5 µM): 0.529 | viability ([9]; 0.008 µM): 1.03 | viability ([9]; 0.04 µM): 1.31 | viability ([9]; 0.2 µM): 0.912 | viability ([9]; 1 µM): 1.03 | viability ([9]; 5 µM): 0.867 | viability ([10]; 0.008 µM): 0.811 | viability ([10]; 0.04 µM): 0.644 | viability ([10]; 0.2 µM): 0.488 | viability ([10]; 1 µM): 0.496 | viability ([10]; 5 µM): 0.461 | viability ([11]; 0.008 µM): 1.13 | viability ([11]; 0.04 µM): 0.965 | viability ([11]; 0.2 µM): 0.862 | viability ([11]; 1 µM): 0.817 | viability ([11]; 5 µM): 0.688 | viability ([12]; 0.008 µM): 1.03 | viability ([12]; 0.04 µM): 1.06 | viability ([12]; 0.2 µM): 0.999 | viability ([12]; 1 µM): 1.05 | viability ([12]; 5 µM): 1 | viability ([13]; 0.008 µM): 0.943 | viability ([13]; 0.04 µM): 1.29 | viability ([13]; 0.2 µM): 1.22 | viability ([13]; 1 µM): 0.897 | viability ([13]; 5 µM): 1.12 | viability ([14]; 0.008 µM): 0.956 | viability ([14]; 0.04 µM): 0.99 | viability ([14]; 0.2 µM): 0.97 | viability ([14]; 1 µM): 1 | viability ([14]; 5 µM): 1.05 | viability ([15]; 0.008 µM): 1.03 | viability ([15]; 0.04 µM): 0.976 | viability ([15]; 0.2 µM): 0.982 | viability ([15]; 1 µM): 0.963 | viability ([15]; 5 µM): 0.986 | viability ([16]; 0.008 µM): 0.897 | viability ([16]; 0.04 µM): 0.688 | viability ([16]; 0.2 µM): 0.617 | viability ([16]; 1 µM): 0.614 | viability ([16]; 5 µM): 0.556 | viability ([17]; 0.008 µM): 1 | viability ([17]; 0.04 µM): 0.963 | viability ([17]; 0.2 µM): 0.926 | viability ([17]; 1 µM): 0.956 | viability ([17]; 5 µM): 0.87 | viability ([18]; 0.008 µM): 1.07 | viability ([18]; 0.04 µM): 0.828 | viability ([18]; 0.2 µM): 0.761 | viability ([18]; 1 µM): 0.863 | viability ([18]; 5 µM): 0.71 | viability ([19]; 0.008 µM): 1.09 | viability ([19]; 0.04 µM): 1.1 | viability ([19]; 0.2 µM): 1.11 | viability ([19]; 1 µM): 0.943 | viability ([19]; 5 µM): 1.1

CC(C)c1cc(C(=O)N2Cc3ccc(CN4CCN(C)CC4)cc3C2)c(O)cc1O [Onalespib]
viability ([1]; 0.0032 µM): 0.875 | viability ([1]; 0.016 µM): 1.35 | viability ([1]; 0.08 µM): 0.668 | viability ([1]; 0.4 µM): 0.69 | viability ([1]; 2 µM): 0.629 | viability ([2]; 0.0032 µM): 1.15 | viability ([2]; 0.016 µM): 0.852 | viability ([2]; 0.08 µM): 0.686 | viability ([2]; 0.4 µM): 0.568 | viability ([2]; 2 µM): 0.648 | viability ([3]; 0.0032 µM): 0.837 | viability ([3]; 0.016 µM): 0.691 | viability ([3]; 0.08 µM): 0.333 | viability ([3]; 0.4 µM): 0.292 | viability ([3]; 2 µM): 0.302 | viability ([4]; 0.0032 µM): 1.1 | viability ([4]; 0.016 µM): 1.06 | viability ([4]; 0.08 µM): 1.06 | viability ([4]; 0.4 µM): 0.989 | viability ([4]; 2 µM): 0.993 | viability ([5]; 0.0032 µM): 0.973 | viability ([5]; 0.016 µM): 1.02 | viability ([5]; 0.08 µM): 0.657 | viability ([5]; 0.4 µM): 0.139 | viability ([5]; 2 µM): 0.15 | viability ([6]; 0.0032 µM): 0.95 | viability ([6]; 0.016 µM): 1.05 | viability ([6]; 0.08 µM): 0.724 | viability ([6]; 0.4 µM): 0.53 | viability ([6]; 2 µM): 0.445 | viability ([7]; 0.0032 µM): 1.04 | viability ([7]; 0.016 µM): 1.44 | viability ([7]; 0.08 µM): 0.814 | viability ([7]; 0.4 µM): 0.497 | viability ([7]; 2 µM): 0.419 | viability ([8]; 0.0032 µM): 0.928 | viability ([8]; 0.016 µM): 0.942 | viability ([8]; 0.08 µM): 0.334 | viability ([8]; 0.4 µM): 0.233 | viability ([8]; 2 µM): 0.237 | viability ([9]; 0.0032 µM): 0.914 | viability ([9]; 0.016 µM): 0.992 | viability ([9]; 0.08 µM): 0.887 | viability ([9]; 0.4 µM): 0.962 | viability ([9]; 2 µM): 0.916 | viability ([10]; 0.0032 µM): 0.712 | viability ([10]; 0.016 µM): 0.916 | viability ([10]; 0.08 µM): 0.399 | viability ([10]; 0.4 µM): 0.684 | viability ([10]; 2 µM): 0.66 | viability ([11]; 0.0032 µM): 0.837 | viability ([11]; 0.016 µM): 1.12 | viability ([11]; 0.08 µM): 0.356 | viability ([11]; 0.4 µM): 0.345 | viability ([11]; 2 µM): 0.306 | viability ([12]; 0.0032 µM): 1.05 | viability ([12]; 0.016 µM): 1.08 | viability ([12]; 0.08 µM): 0.311 | viability ([12]; 0.4 µM): 0.0842 | viability ([12]; 2 µM): 0.0764 | viability ([13]; 0.0032 µM): 1.56 | viability ([13]; 0.016 µM): 1.32 | viability ([13]; 0.08 µM): 1.42 | viability ([13]; 0.4 µM): 0.756 | viability ([13]; 2 µM): 0.792 | viability ([14]; 0.0032 µM): 0.868 | viability ([14]; 0.016 µM): 0.943 | viability ([14]; 0.08 µM): 0.705 | viability ([14]; 0.4 µM): 0.781 | viability ([14]; 2 µM): 0.757 | viability ([15]; 0.0032 µM): 0.93 | viability ([15]; 0.016 µM): 1.11 | viability ([15]; 0.08 µM): 0.675 | viability ([15]; 0.4 µM): 0.33 | viability ([15]; 2 µM): 0.281 | viability ([16]; 0.0032 µM): 0.874 | viability ([16]; 0.016 µM): 0.716 | viability ([16]; 0.08 µM): 0.466 | viability ([16]; 0.4 µM): 0.523 | viability ([16]; 2 µM): 0.58 | viability ([17]; 0.0032 µM): 0.962 | viability ([17]; 0.016 µM): 1.02 | viability ([17]; 0.08 µM): 0.853 | viability ([17]; 0.4 µM): 0.84 | viability ([17]; 2 µM): 0.871 | viability ([18]; 0.0032 µM): 0.594 | viability ([18]; 0.016 µM): 1.1 | viability ([18]; 0.08 µM): 0.265 | viability ([18]; 0.4 µM): 0.57 | viability ([18]; 2 µM): 0.371 | viability ([19]; 0.0032 µM): 1.14 | viability ([19]; 0.016 µM): 0.967 | viability ([19]; 0.08 µM): 0.733 | viability ([19]; 0.4 µM): 0.304 | viability ([19]; 2 µM): 0.234
